Series [1] addresses 2-oxoglutarate receptor 1 (Homo sapiens, UniProt Q96P68). The series can be described thus: Antagonist activity at human GPR99 receptor expressed in CHO-K1 cells co-expressing Galpha and Gqi5 G-protein assessed as inhibition of succinate-induced increase in intracellular calcium level at by FLIPR assay. The class given is functional, cell-based. A general note: A change in cytosolic calcium serves as a functional read-out for many receptors and channels.

Series [2] in a line: Plasma protein binding in Wistar rat at 50 mg/kg, ip. The class given is ADME, organism-based. Further details: dose 50 mg/kg, route intraperitoneal. The note with it: read-out: PPB.
The nature of series [3]: Plasma concentration in Wistar rat plasma at 50 mg/kg, ip at 2 hrs. The class given is ADME, organism-based. Further details: dose 50 mg/kg, route intraperitoneal.
Series [4] deals with Rattus norvegicus. The series can be described thus: Hypotensive activity in Wistar rat assessed as inhibition of succinate-induced increase in mean arterial pressure at 50 mg/kg, ip after 2 hrs post dose. The class given is functional. The note with it: Artery, route intraperitoneal.
Series [5] deals with T1, Succinate receptor 1 (Rattus norvegicus, UniProt Q6IYF9).
T1 sequence (Q6IYF9 whole entry): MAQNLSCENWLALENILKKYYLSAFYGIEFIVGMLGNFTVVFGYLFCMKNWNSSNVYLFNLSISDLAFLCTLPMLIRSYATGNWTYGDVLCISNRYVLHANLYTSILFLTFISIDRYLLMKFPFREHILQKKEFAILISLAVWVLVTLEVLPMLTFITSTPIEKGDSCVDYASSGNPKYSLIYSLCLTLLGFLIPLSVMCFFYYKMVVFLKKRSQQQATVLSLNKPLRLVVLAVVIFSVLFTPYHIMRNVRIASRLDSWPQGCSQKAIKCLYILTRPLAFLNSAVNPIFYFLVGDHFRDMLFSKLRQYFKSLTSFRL
Put plainly: Antagonist activity at rat GPR91 receptor expressed in CHO-K1 cells co-expressing Galpha and Gqi5 G-protein assessed as inhibition of succinate-induced increase in intracellular calcium level by FLIPR assay. The class given is functional, cell-based.

A short description of series [6]: Cmax in Wistar rat at 50 mg/kg, ip by LC/MS/MS analysis. The class given is ADME, organism-based. Further details: dose 50 mg/kg, route intraperitoneal. The note with it: in vivo.
Series [7] is described as follows: Tmax in Wistar rat at 50 mg/kg, ip. Further details: dose 50 mg/kg, route intraperitoneal. The note with it: in vivo. The class given is ADME, organism-based.
Series [8] can be described thus: Drug concentration in Wistar rat kidney at 50 mg/kg, ip after 4 hrs. The class given is ADME, organism-based. Also noted: dose 50 mg/kg, route intraperitoneal. The note with it: read-out: Drug uptake.
The nature of series [9]: Plasma concentration in Wistar rat plasma at 50 mg/kg, ip at 4 hrs. The class given is ADME, organism-based. Also noted: dose 50 mg/kg, route intraperitoneal.
In series [10] the test system is Liver microsomes. Put plainly: Intrinsic clearance in rat liver microsomes preincubated for 5 mins before addition of NADPH measured after 30 mins by LC/MS/MS analysis. The class given is ADME, Microsome. Conditions: 0.5 h. (In general: Liver microsomes are a subcellular fraction often used to study metabolism.)
The nature of series [11]: Terminal half life in Wistar rat at 5 mg/kg, iv. The class given is ADME, organism-based. Further details: dose 5 mg/kg, route intravenous. Conditions: in vivo, read-out: beta t1/2 (converted).
A short description of series [12]: AUC (0 to 8 hrs) in Wistar rat plasma at 50 mg/kg, ip. The class given is ADME, organism-based. Also noted: time < 8 hr, dose 50 mg/kg, route intraperitoneal.
Series [13] is described as follows: Volume of distribution at steady state in Wistar rat at 5 mg/kg, iv. The class given is ADME, organism-based. Further details: dose 5 mg/kg, route intravenous. The note with it: in vivo, read-out: Vdss.
Series [14] deals with Rattus norvegicus. The series can be described thus: Hypotensive activity in Wistar rat assessed as inhibition of succinate-induced increase in mean arterial pressure at 50 mg/kg, ip after 4 hrs post dose. The note with it: Artery, route intraperitoneal. The class given is functional.
The nature of series [15]: Plasma clearance in Wistar rat at 5 mg/kg, iv. The class given is ADME, organism-based. Further details: dose 5 mg/kg, route intravenous.
Series [16] can be described thus: Plasma concentration in Wistar rat plasma at 50 mg/kg, ip at 8 hrs. Also noted: dose 50 mg/kg, route intraperitoneal. The class given is ADME, organism-based.
The target of series [17] is T2, Succinate receptor 1 (Homo sapiens, UniProt Q9BXA5).
T2 sequence (Q9BXA5 whole entry): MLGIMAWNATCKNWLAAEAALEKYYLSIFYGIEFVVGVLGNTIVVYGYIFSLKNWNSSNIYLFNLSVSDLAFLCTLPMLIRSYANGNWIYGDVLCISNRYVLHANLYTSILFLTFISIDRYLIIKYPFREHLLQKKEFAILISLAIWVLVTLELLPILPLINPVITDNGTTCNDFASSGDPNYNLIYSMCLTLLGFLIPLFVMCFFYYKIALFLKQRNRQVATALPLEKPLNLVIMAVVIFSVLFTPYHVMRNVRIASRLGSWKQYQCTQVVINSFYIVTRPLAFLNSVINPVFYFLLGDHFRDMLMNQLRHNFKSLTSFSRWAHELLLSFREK
The series can be described thus: Antagonist activity at human GPR91 receptor expressed in CHO-K1 cells co-expressing Galpha and Gqi5 G-protein assessed as inhibition of succinate-induced increase in intracellular calcium level by FLIPR assay. The class given is functional, cell-based.

Series [18] can be described thus: Cmax in Wistar rat at 5 mg/kg, iv by LC/MS/MS analysis. The class given is ADME, organism-based. Further details: dose 5 mg/kg, route intravenous. Conditions: in vivo.
Series [19] is described as follows: Tmax in Wistar rat at 30 mg/kg, po. Conditions: in vivo. The class given is ADME, organism-based. Also noted: dose 30 mg/kg, route oral.
The nature of series [20]: Oral bioavailability in Wistar rat plasma at 30 mg/kg. The class given is ADME, organism-based.
Series [21] is described as follows: Cmax in Wistar rat at 30 mg/kg, po by LC/MS/MS analysis. Further details: dose 30 mg/kg, route oral. The class given is ADME, organism-based. Conditions: in vivo.
Series [22] can be described thus: Terminal half life in Wistar rat plasma at 30 mg/kg, po. The class given is ADME, organism-based. Further details: dose 30 mg/kg, route oral. Conditions: read-out: beta t1/2 (converted).
Series [23] in a line: Plasma concentration in Wistar rat plasma at 30 mg/kg, po at 4 hrs. The class given is ADME, organism-based. Further details: dose 30 mg/kg, route oral.
Series [24] can be described thus: Plasma concentration in Wistar rat plasma at 30 mg/kg, po at 2 hrs. The class given is ADME, organism-based. Further details: dose 30 mg/kg, route oral.
Series [25] can be described thus: AUC (0 to 24 hrs) in Wistar rat plasma at 30 mg/kg, po. The class given is ADME, organism-based. Also noted: time < 24 hr, dose 30 mg/kg, route oral.

Here are results for 4 compounds from ChEMBL document CHEMBL2150920, “Discovery of a potent and selective small molecule hGPR91 antagonist” (Bioorg Med Chem Lett, 2011).

2-oxoglutarate receptor 1, sequence (Q96P68 whole entry, looked up): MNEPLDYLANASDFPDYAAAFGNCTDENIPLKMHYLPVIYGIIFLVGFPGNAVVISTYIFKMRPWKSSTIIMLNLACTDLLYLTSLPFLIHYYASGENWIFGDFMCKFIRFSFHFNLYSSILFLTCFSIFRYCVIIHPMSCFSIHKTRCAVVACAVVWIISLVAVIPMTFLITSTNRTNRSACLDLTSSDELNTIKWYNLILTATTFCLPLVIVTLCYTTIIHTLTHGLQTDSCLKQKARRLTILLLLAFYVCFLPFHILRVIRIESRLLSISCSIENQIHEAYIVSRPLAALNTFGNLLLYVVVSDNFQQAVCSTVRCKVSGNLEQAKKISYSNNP

As usually defined, the IC50 is the concentration that inhibits the measured activity by half. In general, inhibition in vivo refers to the change of the read-out against control, counted positive when it falls. The Cmax is the highest concentration seen after dosing. Broadly, the Tmax is the time from dosing to the highest level. One may read the AUC(0-t) as exposure summed from dosing to a finite time, without extrapolation to infinity. Lower therefore signals less exposure. Broadly, the clearance is the rate of elimination divided by the concentration. The low end stands for inefficient removal, the high end for efficient removal. For `Cc1cccc(-c2ccc(CNC(=O)CCCc3ccc4cccnc4n3)cc2)c1`, the IC50 in [1] was above 30000 nM; in series [5] it was 7 nM; in series [17] it was 30 nM. Moreover, the fraction unbound in [2] is 0.01. This compound registered a concentration at 2 h in series [3] of 1.8 µM. Moreover, the inhibition in vivo at 50 mg/kg was found to be 71% in series [4] and 67% in series [14]. Besides, the figures for the Cmax in [6] and in series [18] were 3.7 µM and 19 µM, respectively. For the same compound, the Tmax in [7] amounted to 1.8 h. The concentration at 4 h is 7 µM in [8] and 2 µM in series [9]. The compound further displayed an Intrinsic clearance in series [10] of 1.2 nmol/min/mg. In series [11], the half-life is 0.1 h. Besides, in series [12], the exposure AUC(0-t) at 8 h turned out to be 17.4 µM·h. In series [13], the Vd turned out to be 0.5 L/kg. In series [15], this compound showed a clearance of 64.7 mL/min/kg. In addition, the concentration at 8 h in series [16] was 1.1 µM.

`C[C@H](NC(=O)CCCc1ccc2cccnc2n1)c1ccc(-c2cccc(Cl)c2)cc1`: the IC50 in [1] came out at 2000 nM; in [5], 100 nM; in series [17], 11 nM. For the same compound, in [10], the Intrinsic clearance was determined as 0.42 nmol/min/mg. Further, the half-life in series [11] is 0.8 h. Besides, the Vd in series [13] stood at 0.7 L/kg. In [15], the clearance stood at 14.8 mL/min/kg. Further, in [18], the concentration peaked (Cmax) at 19 µM.

For the compound `FC(F)(F)c1cc(-c2nnc(CCCCc3ccc4cccnc4n3)o2)ccc1Cl`, the results for the IC50 in [1], in [5] and in series [17] were above 30000 nM, 435 nM and 160 nM, respectively. In series [3], the concentration at 2 h is 19 µM. The Cmax in [6] is 21 µM; in [18], 92 µM. In addition, in series [7], the Tmax is 2.7 h. This compound also came in with a concentration at 4 h in series [9] of 20 µM. The same compound returned an Intrinsic clearance in series [10] of 0.3 nmol/min/mg. In [11], the half-life was 0.3 h. In addition, in series [12], the AUC(0-t) at 8 h was found to be 304 µM·h. Moreover, the Vd in series [13] came out at 0.1 L/kg. In [15], this compound showed a clearance of 4.8 mL/min/kg. Besides, the concentration at 8 h in series [16] amounted to 15 µM.

By bioavailability is commonly meant the share of a dose that reaches the circulation, judged against a reference dose that is usually intravenous. A high value points to much systemic uptake. For `FC(F)(F)Oc1ccc(-c2nnc(CCCCc3ccc4cccnc4n3)o2)cc1Cl`, the Tmax in [19] was found to be 1.5 h. For the same compound, the concentration for half-maximal inhibition (IC50) in series [1] was above 20000 nM; in series [17], 180 nM. In series [20], this compound yielded a bioavailability of 87%. The Cmax in series [21] came out at 72 µM; in [18], 56 µM. This compound registered an Intrinsic clearance in series [10] of 0.17 nmol/min/mg. Also, the half-life in [22] is 3.4 h; in series [11], 1.3 h. In addition, the concentration at 4 h in series [23] was 40.5 µM. In [13], the Vd came out at 0.2 L/kg. The compound further came in with a concentration at 2 h in [24] of 70 µM. In addition, the AUC(0-t) at 24 h in [25] is 472 µM·h. For the same compound, the clearance in series [15] came out at 2 mL/min/kg.
